Among the data in patent US7579491B2, “Process for preparing brevifoliol” (Council of Scientific and Industrial Research, priority 2002, dated 2009) are anticancer activity values, retold here.

The assay deals with different cancer cell lines. In words: in vitro testing for anticancer activity. It counts as cell-based. The protocol:
The isolation of brevifoliol from leaves of the plant Taxus wallichiana is also reported in S. K. Chattopadhyay et al Indian J. Chemistry 35B, 175-177(1996) as part of studies on the isolation of anticancer compounds. The process of this disclosure involved extracting the dried and crushed needles of Taxus wallichiana with methanol for 72 hours and the extract was concentrated in vacuo. The concentrate was diluted with water and extracted with hexane and chloroform respectively. Concentration of the chloroform phase under vacuum left a residue which was separated by column chromatography over silica gel. Fraction eluted with chloroform-methanol (98:5) contained brevifoliol which was further purified by re-chromatography over silica gel and eluted with chloroform-methanol (99:2). Fractions containing brevifoliol were combined and concentrated and recrystallized from pet-ether and ethyl acetate mixture to get brevifoliol as needles. […] The detection of anticancer activity in brevifoliol prompted the present investigators to develop an efficient processing technology for isolation of the compound in large quantities from the needles of the plant for further biological testing.

As to `C=C1C2C[C@]3(C(C)(C)O)CC(O)C(C)=C3[C@@H](OC(=O)c3ccccc3)[C@H](OC(C)=O)[C@]2(C)[C@@H](OC(C)=O)C[C@@H]1O` (stereo partly shown) [brevifoliol], the anticancer activity result is “significant anticancer activity”.
